Earlier results in patent publication US20090214446A1, “CYCLODEXTRIN INCLUSION COMPLEXES AND METHODS OF PREPARING SAME” (CARGILL, INCORPORATED, priority 2005, published 2009).

Conditions: octanol/water

| log P | Compound |
| --- | --- |
| −1.34 | CC(=O)C(C)=O [diacetyl] |
| 0.30 | CCc1occc(=O)c1O [ethyl maltol] |

| Compound | log P |
| --- | --- |
| C=C(C)[C@H]1CC=C(C)CC1 [limonene] | 4.83 |
